Assay results reported in PubChem BioAssay (NCI).
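The compound was tested at five concentrations on cells cultured in 96-well plates, with a 48-hour exposure period. GI50 marks 50% less growth. TGI: total growth inhibition.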 *1 amine or outer side, *2 acyl side, *3 side chain or, on linkers, in order; H or OH if unused. Where a SMILES comes first, the peptide text is derived from it. [ ]: non-standard residue; d: D form. The star is where a group is joined. X11 = C/C=C/CC(C)C(O)[C@H](N[*:1])C(=O)[*:2]; Decanoyl = CCCCCCCCCC(=O)*; Leu(ol) = CC(C)C[C@H](N)CO; Iva = CC[C@](C)(N)C(=O)O; Aib = CC(C)(N)C(=O)O

How the values were obtained:
Experiment in all cases: DTP human tumour cell line panel, 48 h
786-0 renal = tested on: 786-0 renal
A498 renal = tested on: A498 renal
A549 NSCLC = tested on: A549 NSCLC
ACHN renal = tested on: ACHN renal
BT-549 breast = tested on: BT-549 breast
CAKI-1 renal = tested on: CAKI-1 renal
CCRF-CEM leukemia = tested on: CCRF-CEM leukemia
COLO 205 colon = tested on: COLO 205 colon
DU-145 prostate = tested on: DU-145 prostate
EKVX NSCLC = tested on: EKVX NSCLC
HCC-2998 colon = tested on: HCC-2998 colon
HCT-116 colon = tested on: HCT-116 colon
HCT-15 colon = tested on: HCT-15 colon
HL-60(TB) leukemia = tested on: HL-60(TB) leukemia
HOP-62 NSCLC = tested on: HOP-62 NSCLC
HOP-92 NSCLC = tested on: HOP-92 NSCLC
HS 578T breast = tested on: HS 578T breast
HT29 colon = tested on: HT29 colon
IGROV1 ovarian = tested on: IGROV1 ovarian
K-562 leukemia = tested on: K-562 leukemia
KM12 colon = tested on: KM12 colon
LOX IMVI melanoma = tested on: LOX IMVI melanoma
M14 melanoma = tested on: M14 melanoma
MALME-3M melanoma = tested on: MALME-3M melanoma
MCF7 breast = tested on: MCF7 breast
MDA-MB-231 breast = tested on: MDA-MB-231 breast
MDA-MB-435 = tested on: MDA-MB-435
MOLT-4 leukemia = tested on: MOLT-4 leukemia
NCI-H226 lung = tested on: NCI-H226 lung

C/C=C/CC(C)C(O)[C@H](NC(=O)[C@@H]1CCCN1C(=O)[C@](C)(CC)NC(=O)CCCCCCCCC)C(=O)N[C@@](C)(CC)C(=O)N[C@@H](CCC(N)=O)C(=O)N[C@H](CCC(N)=O)C(=O)NC(C)(C)C(=O)NC(C)(C)C(=O)N[C@@H](CCC(N)=O)C(=O)N[C@H](CC(C)C)C(=O)N[C@H](CO)CC(C)C (stereo partly drawn) (Decanoyl-[Iva]P[X11][Iva]Q[dQ][Aib][Aib]Q[dL][Leu(ol)])
GI50 (786-0 renal): 1810 nM | TGI (786-0 renal): 3430 nM | GI50 (A498 renal): 1900 nM | TGI (A498 renal): 3440 nM | GI50 (A549 NSCLC): 1910 nM | TGI (A549 NSCLC): 3920 nM | GI50 (ACHN renal): 1800 nM | TGI (ACHN renal): 3290 nM | GI50 (BT-549 breast): 1800 nM | TGI (BT-549 breast): 3360 nM | GI50 (CAKI-1 renal): 1690 nM | TGI (CAKI-1 renal): 3110 nM | GI50 (CCRF-CEM leukemia): 1860 nM | TGI (CCRF-CEM leukemia): 3650 nM | GI50 (COLO 205 colon): 1960 nM | TGI (COLO 205 colon): 3810 nM | GI50 (DU-145 prostate): 1790 nM | TGI (DU-145 prostate): 3180 nM | GI50 (EKVX NSCLC): 1740 nM | TGI (EKVX NSCLC): 3290 nM | GI50 (HCC-2998 colon): 1780 nM | TGI (HCC-2998 colon): 3420 nM | GI50 (HCT-116 colon): 1890 nM | TGI (HCT-116 colon): 3570 nM | GI50 (HCT-15 colon): 1860 nM | TGI (HCT-15 colon): 3670 nM | GI50 (HL-60(TB) leukemia): 1740 nM | TGI (HL-60(TB) leukemia): 3390 nM | GI50 (HOP-62 NSCLC): 1630 nM | TGI (HOP-62 NSCLC): 3270 nM | GI50 (HOP-92 NSCLC): 1620 nM | TGI (HOP-92 NSCLC): 3250 nM | GI50 (HS 578T breast): 1800 nM | TGI (HS 578T breast): 3480 nM | GI50 (HT29 colon): 1880 nM | TGI (HT29 colon): 3720 nM | GI50 (IGROV1 ovarian): 1790 nM | TGI (IGROV1 ovarian): 3390 nM | GI50 (K-562 leukemia): 1950 nM | TGI (K-562 leukemia): 3970 nM | GI50 (KM12 colon): 1870 nM | TGI (KM12 colon): 3570 nM | GI50 (LOX IMVI melanoma): 1740 nM | TGI (LOX IMVI melanoma): 3260 nM | GI50 (M14 melanoma): 1800 nM | TGI (M14 melanoma): 3370 nM | GI50 (MALME-3M melanoma): 1520 nM | TGI (MALME-3M melanoma): 2920 nM | GI50 (MCF7 breast): 1770 nM | TGI (MCF7 breast): 3520 nM | GI50 (MDA-MB-231 breast): 1780 nM | TGI (MDA-MB-231 breast): 3250 nM | GI50 (MDA-MB-435): 1770 nM | TGI (MDA-MB-435): 3170 nM | GI50 (MOLT-4 leukemia): 1930 nM | TGI (MOLT-4 leukemia): 3640 nM | GI50 (NCI-H226 lung): 1780 nM | TGI (NCI-H226 lung): 3830 nM
